{"source": "ChEMBL document CHEMBL4406844", "about": "“Single-molecule chemiluminescent photosensitizer for a self-activating and tumor-selective photodynamic therapy of cancer” (Eur J Med Chem, 2019)", "key": {"MCF-10A": {"test_system": "MCF-10A", "experiment": "Cytotoxicity against human MCF10A cells assessed as reduction in cell viability at 0.1 to 100 uM incubated for 24 hrs by MTT assay", "assay_type": "cell-based"}, "PC-3 [1]": {"test_system": "PC-3", "experiment": "Cytotoxicity against human PC3 cells assessed as reduction in cell viability at >75 uM incubated for 24 hrs by MTT assay relative to control", "assay_type": "functional"}, "[2]": {"experiment": "Induction of singlet production in methanol in presence of potassium superoxide using chemiluminescent substrate by spectrofluorimetry", "assay_type": "functional"}, "[3]": {"experiment": "Induction of singlet production in methanol in presence of potassium superoxide using chemiluminescent substrate incubated for 30 mins in N2-bubbling by spectrofluorimetry relative to control", "assay_type": "functional"}, "MCF7 [4]": {"test_system": "MCF7", "experiment": "Cytotoxicity against human MCF7 cells assessed as reduction in cell viability at 0.1 uM incubated for 24 hrs by MTT assay", "assay_type": "functional, cell-based"}, "[5]": {"experiment": "Induction of singlet oxygen production in methanol assessed as ABDA florescence quenching in presence of potassium superoxide by spectrofluorimetry", "assay_type": "functional"}, "[6]": {"experiment": "Induction of singlet production in methanol in presence of potassium superoxide using chemiluminescent substrate incubated for 30 mins in liquid nitrogen temperature by spectrofluorimetry", "assay_type": "functional"}, "MCF7 [7]": {"test_system": "MCF7", "experiment": "Cytotoxicity against human MCF7 cells assessed as reduction in cell viability at 0.1 to 100 uM incubated for 24 hrs by MTT assay", "assay_type": "functional, cell-based"}, "[8]": {"experiment": "Induction of singlet production in acetate buffer using chemiluminescent substrate by spectrofluorimetry", "assay_type": "functional"}, "[9]": {"experiment": "Induction of singlet oxygen production in acetate buffer assessed as ABDA florescence quenching by spectrofluorimetry", "assay_type": "functional"}, "PC-3 [10]": {"test_system": "PC-3", "experiment": "Cytotoxicity against human PC3 cells assessed as reduction in cell viability at 0.1 to 100 uM incubated for 24 hrs by MTT assay", "assay_type": "functional, cell-based"}, "[11]": {"experiment": "Induction of singlet oxygen production in methanol assessed as ABDA florescence quenching by spectrofluorimetry", "assay_type": "functional"}}, "note": "Activity calls are given as the source filed them. The rule behind the calls is not given here."}
{"molecule": "Cc1nc2c[nH]c(-c3ccc(Br)cc3)cn-2c1=O", "values": [{"measurement": "Activity", "setting": "MCF-10A", "result": "Non-Toxic"}, {"measurement": "Activity", "setting": "PC-3 [1]", "result": ">50", "unit": "%"}, {"measurement": "Activity", "setting": "[2]", "result": "Active"}, {"measurement": "Activity", "setting": "[3]", "result": "Active"}, {"measurement": "Activity", "setting": "MCF7 [4]", "result": "Active"}, {"measurement": "Activity", "setting": "[5]", "result": "Active"}, {"measurement": "Activity", "setting": "[6]", "result": "Active"}]}
{"molecule": "CC/C(=C(\\c1ccccc1)c1ccc(OCCN(C)C)cc1)c1ccccc1", "values": [{"measurement": "Activity", "setting": "MCF7 [7]", "result": "Active"}]}
{"molecule": "CC(=O)Nc1cnc(Br)cn1", "values": [{"measurement": "Activity", "setting": "[8]", "result": "Active"}, {"measurement": "Activity", "setting": "[9]", "result": "Active"}]}
{"molecule": "CN(C)C(=N)NC(=N)N", "values": [{"measurement": "Activity", "setting": "PC-3 [10]", "result": "Active"}]}
{"molecule": "O=c1c(Cc2ccc(O)cc2)nc2c(Cc3ccccc3)[nH]c(-c3ccc(O)cc3)cn1-2", "values": [{"measurement": "Activity", "setting": "[8]", "result": "Active"}, {"measurement": "Activity", "setting": "MCF7 [7]", "result": "inactive"}, {"measurement": "Activity", "setting": "[3]", "result": "inactive"}, {"measurement": "Activity", "setting": "PC-3 [10]", "result": "Active"}, {"measurement": "Activity", "setting": "[11]", "result": "inactive"}]}
